IC50 data for 62 compounds are collected here from PubChem BioAssay AID2305 (GlaxoSmithKline (GSK), 2010).

This assay relates to P. falciparum 3D7 growth, pLDH absorbance. Kind of assay: P. falciparum 3D7 growth inhibition, dose response, strain 3D7 (AID 2305).

Usually IC50 stands for the midpoint of a concentration-inhibition curve. A higher IC50 goes with lower potency.

For the compound `CCCNCc1ccc(-c2ccc(CN(Cc3cnc(C)cn3)C(=O)c3nn(-c4ccccc4)nc3C)cc2)nc1`, the IC50 turned out to be 420 nM.

`O=C(Cn1c(CCc2cccc(F)c2F)cc(=O)c2cccnc21)N(CCn1ccnc1)Cc1ccc(-c2ccc(C(F)(F)F)cc2)cc1` came in with an IC50 of 670 nM.

In turn, `CCN1CCN(c2cc(C)c3cc(NC(=O)c4ccc(N(CC)CC)cc4)ccc3n2)CC1` gave a concentration for half-maximal inhibition (IC50) of 960 nM.

With `CC(c1cccc(S(=O)(=O)NCc2ccc(Cl)cc2Cl)c1)N1CCC(N2CCCCC2)CC1` (configuration not stated), the IC50 is 750 nM.

In turn, `O=C(/C=C/c1ccc(Cl)c(Cl)c1)NCCCCCCN1CCCN(C(=O)Nc2ccc(F)c(F)c2)CC1` displayed a concentration for half-maximal inhibition (IC50) of 1240 nM.

Compound `Cc1cc(NC(=O)c2cccs2)ccc1OC1CCN(Cc2ccc(C#N)cc2)C1` (configuration not stated) had an IC50 of 850 nM.

For `O=C(C1CCN(C(c2ccccc2)c2ccc(Cl)c(Cl)c2)CC1)N1CC=CC1` (configuration not stated), the IC50 was 720 nM.

On to `COc1ccc(NC(=O)C2CCN(CCCCCNC(=O)/C=C/c3ccc(Cl)c(Cl)c3)CC2)cc1`, for which the IC50 amounted to 830 nM.

On to `O=C(/C=C/c1ccc(Cl)c(Cl)c1)N1CCC(CN2CCC(c3c[nH]c4ccc(NS(=O)(=O)c5cccs5)cc34)CC2)CC1`, for which the IC50 came to 220 nM.

Take `CNC(=O)c1cnc(Nc2ccc(OCC(O)CN(C)C)cc2)nc1Nc1cccc(Br)c1` (configuration not stated): the IC50 was 120 nM.

In turn, `O=[N+]([O-])c1cccc(-c2nc3ccc(C4=N[C@H]5CCCC[C@H]5N4)cc3[nH]2)c1` displayed a half-maximal inhibitory concentration (IC50) of 200 nM.

Regarding `CN1CCC(N(Cc2ccc(-c3ccc(C(F)(F)F)cc3)cc2)C(=O)Cn2c(SCc3cccc(F)c3F)cc(=O)c3c2CCC3)CC1`, the concentration for half-maximal inhibition (IC50) came to 160 nM.

The compound `COCCNC(=O)c1ccc(OC2CCN(Cc3ccc(F)c(F)c3)CC2)c(Cl)c1` displayed an IC50 of 1490 nM.

On to `O=C(NCc1ccccc1)Nc1ccc(-c2cccc(-c3nc4ccc(C(F)(F)F)cc4[nH]3)c2)cc1`, for which the concentration for half-maximal inhibition (IC50) worked out at 660 nM.

In turn, `c1ccc2c(c1)ncc1c3ccccc3[nH]c21` came in with an IC50 of 870 nM.

On to `CC(=O)Nc1ccc(CN2Cc3ccc(NC(=O)Nc4ccc(Oc5ccccc5)cc4)cc3C2)s1`, for which the IC50 is 920 nM.

`CCN(CC)CCN(Cc1ccc(-c2ccc(C(F)(F)F)cc2)cc1)C(=O)Cn1c(CCc2c(F)cc(F)cc2F)nc(=O)c2ccccc21` showed a half-maximal inhibitory concentration (IC50) of 1040 nM.

As to `CCCNCc1ccc(-c2ccc(CN(CCOC)C(=O)c3nn(-c4ccccc4)nc3C)cc2)nc1`, the IC50 worked out at 730 nM.

`O=C(Nc1cccc(C(F)(F)F)c1)N1CCOC(CCN2CCC3(CCc4ccccc43)CC2)(c2ccc(Cl)c(Cl)c2)C1` (configuration not stated) gave an IC50 of 740 nM.

On to `Cc1cc(NS(=O)(=O)c2cccc(C(C)N3CCC(N4CCCC4)CC3)c2)ccc1C(C)C` (configuration not stated), for which the concentration for half-maximal inhibition (IC50) was 820 nM.

Turning to `COc1ccccc1-c1nc2nc(N)nc(N)c2nc1-c1ccccc1OC`, the IC50 is 1250 nM.

In turn, `O=C1COc2cc(Cl)c(CNC3CCN(CCc4ccnc5c(F)cc(F)cc45)CC3)nc2N1` displayed an IC50 of 800 nM.

As for `Cc1ccc(CCC(C)NCC(O)c2cccc(C(F)(F)F)c2)cc1` (configuration not stated), the IC50 worked out at 560 nM.

The compound `CCCCN(CCCC)C(=NCCCCCCN=C(/N=C(/N)Nc1ccc(Cl)cc1)N(CCCC)CCCC)/N=C(/N)Nc1ccc(Cl)cc1` yielded an IC50 of 790 nM.

For `CC(=O)N(C)c1cccc(C(=O)Nc2ccc(-c3cccc(-c4nc5ccc(C(F)(F)F)cc5[nH]4)c3)cc2)c1`, the 50% inhibitory concentration (IC50) stood at 720 nM.

Consider `FC(F)(F)c1ccc2nc(-c3cccc(-c4ccc(CNCC5CCCO5)cc4)c3)[nH]c2c1` (configuration not stated), for which the IC50 came to 280 nM.

In turn, `CCN(CC)CCCC(C)Nc1cc(C=Cc2ccc([N+](=O)[O-])cc2)nc2ccc(OC)cc12` (configuration not stated) yielded an IC50 of 570 nM.

Compound `O=C(Nc1ccc(Cn2ncc(N3CCCNCC3)c(Cl)c2=O)cc1)Nc1cc(C(F)(F)F)cc(C(F)(F)F)c1` had a 50% inhibitory concentration (IC50) of 590 nM.

For `O=S(=O)(c1ccccc1)C1CC1`, the concentration for half-maximal inhibition (IC50) was determined as 720 nM.

Compound `Cc1ccc(-n2cc(CNCCCn3ccnc3)c(-c3cccc(C)c3)n2)cc1` registered a half-inhibitory concentration (IC50) of 770 nM.

On to `CC(C)N1CCN(C(=O)c2ccc(CNCCCN3CCN(c4cccc(Cl)c4Cl)CC3)s2)CC1`, for which the half-inhibitory concentration (IC50) was determined as 720 nM.

`c1ccc2[nH]c(-c3ccc(-c4ccc(CNC5CC5)cc4)s3)nc2c1` displayed an IC50 of 1050 nM.

The compound `c1ccc(C(c2ccccc2)N2CCC(NCc3ccc(OCCCN4CCCCC4)cc3)CC2)cc1` showed a half-inhibitory concentration (IC50) of 560 nM.

Take `CC(=O)Nc1ccc2[nH]cc(C3CCN(CCC4CCN(C(=O)/C=C/c5ccc(Cl)c(Cl)c5)CC4)CC3)c2c1`: the IC50 is 780 nM.

Take `CN(C)CCOc1cc(NC(=O)Nc2ccc(-c3ccncc3)c(Cl)c2)ccc1I`: the half-maximal inhibitory concentration (IC50) worked out at 140 nM.

The compound `CCC(C)c1ccc(NC(=O)Nc2ccnc3ccccc23)cc1` (configuration not stated) gave an IC50 of 630 nM.

In the case of `CCCNCc1ccc(-c2ccc(CNC3Cc4ccccc4C3)cc2)nc1`, the IC50 is 850 nM.

As for `COc1c(C2CCN(CCCCNC(=O)C=Cc3cc4cc(Cl)ccc4o3)CC2)ccc2c1CCCC2`, the half-maximal inhibitory concentration (IC50) was 1310 nM.

`COc1ccc(OC)c2c1CCN(C)C2Cc1cccc2ccccc12` (configuration not stated) registered a half-maximal inhibitory concentration (IC50) of 1050 nM.

Turning to `Cc1cccc2[nH]c(-c3ccc(-c4ccc(CNC(C)C)cc4)cc3)nc12`, the IC50 was found to be 680 nM.

In turn, `Cc1cnc(CNCc2ccc(S(=O)(=O)Nc3ccc(Oc4cccc(Cl)c4)cc3)cc2)cn1` displayed an IC50 of 770 nM.

The compound `CN(CCCCCN1CCC(NC(=O)Nc2ccc(C(F)(F)F)cc2)C1)C(=O)/C=C/c1ccc(Cl)c(Cl)c1` (configuration not stated) came in with an IC50 of 770 nM.

`CCN(CC)CCOc1ccc(Nc2ncc3cc(-c4c(Cl)cccc4Cl)c(=O)n(C)c3n2)cc1` registered an IC50 of 1180 nM.

In turn, `O=C(Nc1cccc(CN2CCCN(Cc3ncc[nH]3)CC2)c1)c1cc2ccccc2s1` showed an IC50 of 730 nM.

`O=C(NC1CC1)c1cnc(N2CCCC(c3ccccc3)C2)c(Cl)c1` (configuration not stated) displayed a 50% inhibitory concentration (IC50) of 800 nM.

For `COc1cc(C)c(C(O)CNC(C)CCc2ccccc2)cc1C` (configuration not stated), the concentration for half-maximal inhibition (IC50) amounted to 730 nM.

`O=C(c1ccc([N+](=O)[O-])o1)N1CCN(c2nc3c(F)cc(F)cc3s2)CC1` yielded an IC50 of 970 nM.

The compound `COc1ccc2nccc(N3CCC(O)(CCNCc4ccc5c(n4)NC(=O)CO5)CC3)c2n1` registered a concentration for half-maximal inhibition (IC50) of 820 nM.

`CCCC(C)N(Cc1ccc(C(C)(C)C)cc1)C(=O)c1cccc(C#N)c1` (configuration not stated) returned a half-maximal inhibitory concentration (IC50) of 1050 nM.

In the case of `Cc1cccc2[nH]c(-c3cccc(-c4ccc(NC(=O)C(C)CN5CCN(C)CC5)cc4)c3)nc12` (configuration not stated), the IC50 worked out at 180 nM.

In turn, `Cc1ccccc1NC(=O)C1CSCN1C(=O)OCc1ccccc1` (configuration not stated) came in with a half-inhibitory concentration (IC50) of 980 nM.

Turning to `CC(=O)Nc1cccc(C(=O)Nc2ccc(-c3cccc(-c4nc5ccc(F)cc5[nH]4)c3)cc2)c1`, the IC50 came out at 630 nM.

For the compound `CN(C)S(=O)(=O)n1ccc2c3c(N)nc(N)nc3ccc21`, the IC50 turned out to be 50 nM.

Turning to `Fc1ccc2[nH]c3c(NCCCN4CCOCC4)ncnc3c2c1`, the half-maximal inhibitory concentration (IC50) came to 710 nM.

Take `Cn1nc(-c2ccc(Cl)cc2)c2cc(C(=O)NCCN3CCOCC3)sc21`: the IC50 was found to be 720 nM.

Regarding `Cc1[nH]c2c(C)cccc2c1C1CCN(CCC2CCN(C(=O)/C=C/c3ccc(Cl)c(Cl)c3)CC2)CC1`, the IC50 amounted to 640 nM.

Turning to `NC(N)=NC(=O)Nc1cc(Br)c(Cl)c(Br)c1`, the IC50 came out at 770 nM.

For the compound `CCOC(=O)c1[nH]c(-c2cccc(F)c2)nc1N`, the IC50 amounted to 750 nM.

In turn, `Cc1cccc2[nH]c(-c3ccc(-c4ccc(CNCc5ccccc5)cc4)s3)nc12` showed a half-maximal inhibitory concentration (IC50) of 210 nM.

With `COc1ccc(C(=O)CCc2ccc(O)cc2)cc1`, the IC50 amounted to 480 nM.

`Cc1sc(CNCCCNc2cc(=O)c3ccccc3[nH]2)c(I)c1C`: the IC50 turned out to be 850 nM.

As to `O=C1CSc2ccc(CNC3CCN(CCc4c(Cl)cnc5ccc(Cl)cc45)CC3)nc2N1`, the IC50 is 230 nM.
